Data published in ChEMBL document CHEMBL1151901, “3-(aminomethyl)piperazine-2,5-dione as a novel NMDA glycine site inhibitor from the chemical universe database GDB” (Bioorg Med Chem Lett, 2009).
The source made the active and inactive calls. The calls are words filed in the database; no cut-off is given here.

Columns and labels:
[1] = target: Glutamate NMDA receptor; Grin1/Grin2a (Rattus norvegicus, UniProt P35439+Q00959); test: Activity at rat NR1/NR2A receptor expressed in Xenopus oocytes assessed as inhibition of glycine-induced electrophysiological response; format: cell-based, Oocyte
Glutamate NMDA receptor; Grin1/Grin2a, sequence (Q00959 whole entry, other chains not shown): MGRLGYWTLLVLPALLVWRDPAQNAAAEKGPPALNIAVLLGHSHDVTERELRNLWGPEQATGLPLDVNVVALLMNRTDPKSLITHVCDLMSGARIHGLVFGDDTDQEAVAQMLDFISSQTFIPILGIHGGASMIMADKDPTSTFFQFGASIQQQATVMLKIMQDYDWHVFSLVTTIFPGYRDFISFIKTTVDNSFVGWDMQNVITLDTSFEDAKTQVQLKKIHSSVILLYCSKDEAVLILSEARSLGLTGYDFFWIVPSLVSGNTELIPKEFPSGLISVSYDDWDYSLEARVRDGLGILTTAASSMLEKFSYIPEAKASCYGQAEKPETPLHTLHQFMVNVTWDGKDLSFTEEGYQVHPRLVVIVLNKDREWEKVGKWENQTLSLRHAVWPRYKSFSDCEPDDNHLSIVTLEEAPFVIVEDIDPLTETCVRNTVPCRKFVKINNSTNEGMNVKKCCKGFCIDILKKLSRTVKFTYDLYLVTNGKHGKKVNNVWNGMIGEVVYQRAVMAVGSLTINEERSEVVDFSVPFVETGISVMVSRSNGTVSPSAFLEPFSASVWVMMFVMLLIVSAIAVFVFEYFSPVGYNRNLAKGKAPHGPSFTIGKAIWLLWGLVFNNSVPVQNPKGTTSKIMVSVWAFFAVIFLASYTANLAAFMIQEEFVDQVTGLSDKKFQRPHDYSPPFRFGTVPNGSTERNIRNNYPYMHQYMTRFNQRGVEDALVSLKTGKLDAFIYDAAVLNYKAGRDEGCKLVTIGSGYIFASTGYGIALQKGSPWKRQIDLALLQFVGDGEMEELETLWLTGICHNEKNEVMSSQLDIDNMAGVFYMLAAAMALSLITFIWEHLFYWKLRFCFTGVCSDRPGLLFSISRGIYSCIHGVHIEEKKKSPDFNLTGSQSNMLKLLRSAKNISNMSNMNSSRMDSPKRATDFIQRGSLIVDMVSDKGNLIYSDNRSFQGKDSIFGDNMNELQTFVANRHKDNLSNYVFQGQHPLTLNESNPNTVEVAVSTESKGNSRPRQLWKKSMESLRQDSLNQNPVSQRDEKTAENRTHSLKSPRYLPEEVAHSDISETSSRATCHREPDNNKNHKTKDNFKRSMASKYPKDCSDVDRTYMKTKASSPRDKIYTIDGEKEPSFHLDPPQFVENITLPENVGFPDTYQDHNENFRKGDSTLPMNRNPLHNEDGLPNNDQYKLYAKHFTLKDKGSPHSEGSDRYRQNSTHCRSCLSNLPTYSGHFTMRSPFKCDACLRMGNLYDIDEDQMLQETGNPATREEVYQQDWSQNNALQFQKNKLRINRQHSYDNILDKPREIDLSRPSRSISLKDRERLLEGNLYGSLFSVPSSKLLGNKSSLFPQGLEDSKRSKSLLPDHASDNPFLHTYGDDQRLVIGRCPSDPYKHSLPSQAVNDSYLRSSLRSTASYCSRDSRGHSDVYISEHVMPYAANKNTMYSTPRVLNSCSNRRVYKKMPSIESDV

[2] = target: Glutamate NMDA receptor (Rattus norvegicus) (UniProt P35439+Q00959+Q00960+Q00961+Q62645+Q8VHN2+Q9R1M7); test: Displacement of [3H]MDL105519 from rat brain NMDA receptor glycine binding site at 100 uM by Packard Topcount scintillation counter

Compound	IC50 [1] [µM]	Activity [2]	Kd [1] [µM]	inhibition [2] [%]
C[C@H](N)CC(=O)NCC(=O)O	28	–	–	–
NCC1CNC(=O)C(=O)N1 (racemic)	–	inactive	–	–
NC[C@@H]1NC(=O)CNC1=O	370	–	50	30
NCCCC(=O)NCC(=O)O	65	–	–	–
